In patent US20150141381A1, “TETRACYCLINE COMPOUNDS HAVING TARGET THERAPEUTIC ACTIVITIES” (Paratek Pharmaceuticals, Inc., priority 2001, published 2015) one finds MIC data, which are given here for 40 molecules.

The test system of experiment [1] is S. aureus RN450. The experiment can be described thus: In Vitro Anti-Bacterial Activity Assay (MIC), gram positive. The note with it: Staphylococcus aureus, RN450, 18 h. It is filed as cell-based.
In experiment [2] the test system is E. coli mL308 225. The experiment can be described thus: In Vitro Anti-Bacterial Activity Assay (MIC), gram negative. Type of experiment: cell-based. The note with it: Escherichia coli, ML308225, 18 h.
Where [3] appears, read: MIC class, Table 3, read-out: Antibiotic Activity Gram +.
The mark [4] stands for this setting: MIC class, Table 3, read-out: Antibiotic Activity Gram −.
Where [5] appears, read: gram positive bacteria, read-out: Antibiotic Activity Gram + (MIC).
[6] abbreviates: gram negative bacteria, read-out: Antibiotic Activity Gram − (MIC).
[7] abbreviates: MIC class, Table 3 (Continued), read-out: Gram+ activity.
[8] abbreviates: MIC class, Table 3 (Continued), read-out: Gram− activity.

Molecules are shown by their SMILES. Read-outs that look alike come from different tables or passages of the source. Some results are limits rather than exact numbers.

For the molecule `CO/N=C(/C)c1cc(C(C)(C)C)c(O)c2c1C[C@H]1C[C@H]3[C@H](N(C)C)C(O)=C(C(N)=O)C(=O)[C@@]3(O)C(O)=C1C2=O` [IC], the results for the MIC in experiment [1] (setting [3]) and in experiment [2] (setting [4]) were under 4 µg/mL and over 4 µg/mL, respectively.

As to `CC(C)CNC(=O)Nc1ccc(-c2ccc(O)c3c2C[C@H]2C[C@H]4[C@H](N(C)C)C(O)=C(C(N)=O)C(=O)[C@@]4(O)C(O)=C2C3=O)cc1`, the MIC in experiment [1] (setting [5]) and in experiment [2] (setting [6]) was under 4 µg/mL each time.

Turning to `CCc1ccc(O)c2c1C[C@H]1C[C@H]3[C@@H](N(C)C)C(O)=C(C(N)=O)C(=O)[C@@]3(O)C(O)=C1C2=O` [DM], the MIC in experiment [1] (setting [3]) was under 4 µg/mL; in experiment [2] (setting [4]) it was over 4 µg/mL.

`CN(C)c1cc(CNC(=O)C(C)(C)C)c(O)c2c1C[C@H]1C[C@H]3[C@H](N(C)C)C(O)=C(C(N)=O)C(=O)[C@@]3(O)C(O)=C1C2=O`: the MIC in experiment [1] (setting [5]) is under 4 µg/mL; in experiment [2] (setting [6]), over 4 µg/mL.

Turning to `CC1c2cccc(O)c2C(=O)C2=C(O)[C@]3(O)C(=O)C(C(N)=O)=C(O)[C@@H](N(C)C)[C@@H]3[C@@H](O)[C@@H]21` (some centres unmarked), the MIC in experiment [1] (setting [7]) is under 4 µg/mL; in experiment [2] (setting [8]), over 4 µg/mL.

Turning to `Cc1cc(CNCc2cc(N(C)C)c3c(c2O)C(=O)C2=C(O)[C@]4(O)C(=O)C(C(N)=O)=C(O)[C@@H](N(C)C)[C@@H]4C[C@@H]2C3)c(C(F)(F)F)o1`, the MIC in experiment [1] (setting [5]) and in experiment [2] (setting [6]) was under 4 µg/mL throughout.

With `CN(C)[C@@H]1C(OCc2ccccc2)=C(C(N)=O)C(=O)[C@@]2(O)C(O)=C3C(=O)c4c(O)ccc(I)c4C[C@H]3C[C@@H]12`, the MIC in experiment [1] (setting [5]) and in experiment [2] (setting [6]) was under 4 µg/mL each time.

In the case of `COC(=O)C(=O)Nc1ccc(-c2ccc(O)c3c2C[C@H]2C[C@H]4[C@H](N(C)C)C(O)=C(C(N)=O)C(=O)[C@@]4(O)C(O)=C2C3=O)cc1`, the MIC was under 4 µg/mL in experiment [1] (setting [5]) and over 4 µg/mL in experiment [2] (setting [6]).

On to `CC#Cc1cc(N(C)C)c2c(c1O)C(=O)C1=C(O)[C@]3(O)C(=O)C(C(N)=O)=C(O)[C@@H](N(C)C)[C@@H]3C[C@@H]1C2`, for which the MIC in experiment [1] (setting [7]) and in experiment [2] (setting [8]) was over 4 µg/mL each time.

Turning to `CN(C)[C@@H]1C(O)=C(C(N)=O)C(=O)[C@@]2(O)C(O)=C3C(=O)c4c(O)c(C(C)(C)C)cc(-c5cnc6ccccc6c5)c4C[C@H]3C[C@@H]12`, the MIC in experiment [1] (setting [5]) and in experiment [2] (setting [6]) was over 4 µg/mL in each case.

Consider `COc1ccc(Cl)cc1-c1ccc(O)c2c1C[C@H]1C[C@H]3[C@H](N(C)C)C(O)=C(C(N)=O)C(=O)[C@@]3(O)C(O)=C1C2=O`, for which the MIC in experiment [1] (setting [7]) and in experiment [2] (setting [8]) was under 4 µg/mL throughout.

Turning to `CN(C)[C@@H]1C(O)=C(C(N)=O)C(=O)[C@@]2(O)C(O)=C3C(=O)c4c(O)ccc(-c5ccc(CNc6ccccc6)cc5)c4C[C@H]3C[C@@H]12`, the MIC in experiment [1] (setting [5]) is under 4 µg/mL; in experiment [2] (setting [6]), over 4 µg/mL.

In the case of `CN(C)c1cc(CCc2ccc(F)cc2)c(O)c2c1C[C@H]1C[C@H]3[C@H](N(C)C)C(O)=C(C(N)=O)C(=O)[C@@]3(O)C(O)=C1C2=O`, the MIC in experiment [1] (setting [5]) and in experiment [2] (setting [6]) was under 4 µg/mL throughout.

In the case of `CC(=O)c1ccc(NC(=O)NCc2cc(N(C)C)c3c(c2O)C(=O)C2=C(O)[C@]4(O)C(=O)C(C(N)=O)=C(O)[C@@H](N(C)C)[C@@H]4C[C@@H]2C3)cc1` [FL], the figures for the MIC in experiment [1] (setting [3]) and in experiment [2] (setting [4]) were under 4 µg/mL and over 4 µg/mL, respectively.

Regarding `COCCOC(=O)Nc1ccc(-c2ccc(O)c3c2C[C@H]2C[C@H]4[C@H](N(C)C)C(O)=C(C(N)=O)C(=O)[C@@]4(O)C(O)=C2C3=O)cc1` [HH], the MIC was under 4 µg/mL in experiment [1] (setting [3]) and over 4 µg/mL in experiment [2] (setting [4]).

As to `COCc1cncc(-c2ccc(O)c3c2C[C@H]2C[C@H]4[C@H](N(C)C)C(O)=C(C(N)=O)C(=O)[C@@]4(O)C(O)=C2C3=O)c1`, the MIC in experiment [1] (setting [5]) and in experiment [2] (setting [6]) was under 4 µg/mL throughout.

For the molecule `CC(C)S(=O)(=O)NCC#Cc1cc(N(C)C)c2c(c1O)C(=O)C1=C(O)[C@]3(O)C(=O)C(C(N)=O)=C(O)[C@@H](N(C)C)[C@@H]3C[C@@H]1C2` [DI], the MIC in experiment [1] (setting [3]) and in experiment [2] (setting [4]) was over 4 µg/mL in each case.

`CN(C)c1cc(-c2ccc(C(=O)O)cc2)c(O)c2c1C[C@H]1C[C@H]3[C@@H](N(C)C)C(O)=C(C(N)=O)C(=O)[C@@]3(O)C(O)=C1C2=O` [AP]: the MIC in experiment [1] (setting [3]) and in experiment [2] (setting [4]) was over 4 µg/mL each time.

As for `CC(CCO)NCc1cc(N(C)C)c2c(c1O)C(=O)C1=C(O)[C@]3(O)C(=O)C(C(N)=O)=C(O)[C@@H](N(C)C)[C@@H]3C[C@@H]1C2` (some centres unmarked), the figures for the MIC in experiment [1] (setting [5]) and in experiment [2] (setting [6]) were under 4 µg/mL and over 4 µg/mL, respectively.

Turning to `CCc1ccc(-c2cc(N(C)C)c3c(c2O)C(=O)C2=C(O)[C@]4(O)C(=O)C(C(N)=O)=C(O)[C@@H](N(C)C)[C@@H]4C[C@@H]2C3)cc1` [EJ], the MIC in experiment [1] (setting [3]) is under 4 µg/mL; in experiment [2] (setting [4]), over 4 µg/mL.

For `CN1CCC(N(C)c2ccc3c(c2O)C(=O)C2=C(O)[C@]4(O)C(=O)C(C(N)=O)=C(O)[C@@H](N(C)C)[C@@H]4C[C@@H]2C3)CC1`, the MIC in experiment [1] (setting [5]) and in experiment [2] (setting [6]) was over 4 µg/mL in each case.

For `CN(C)c1cc(NC(=O)Nc2ccc(OC(F)(F)F)cc2)c(O)c2c1C[C@H]1C[C@H]3[C@H](N(C)C)C(O)=C(C(N)=O)C(=O)[C@@]3(O)C(O)=C1C2=O` [CG], the MIC was under 4 µg/mL in experiment [1] (setting [3]) and over 4 µg/mL in experiment [2] (setting [4]).

For `CC(=O)OCC(=O)Nc1ccc(-c2ccc(O)c3c2C[C@H]2C[C@H]4[C@H](N(C)C)C(O)=C(C(N)=O)C(=O)[C@@]4(O)C(O)=C2C3=O)cc1`, the MIC in experiment [1] (setting [5]) was under 4 µg/mL; in experiment [2] (setting [6]) it was over 4 µg/mL.

Take `CC(=O)CCC(=O)Nc1ccc2c(c1O)C(=O)C1=C(O)[C@]3(O)C(=O)C(C(N)=O)=C(O)[C@@H](N(C)C)[C@@H]3C[C@@H]1C2`: the MIC in experiment [1] (setting [5]) and in experiment [2] (setting [6]) was over 4 µg/mL throughout.

As to `CC(=O)Cc1cc(-c2ccccn2)c2c(c1O)C(=O)C1=C(O)[C@]3(O)C(=O)C(C(N)=O)=C(O)[C@@H](N(C)C)[C@@H]3C[C@@H]1C2`, the MIC in experiment [1] (setting [5]) and in experiment [2] (setting [6]) was over 4 µg/mL throughout.

Turning to `CN(C)[C@@H]1C(O)=C(C(N)=O)C(=O)[C@@]2(O)C(O)=C3C(=O)c4c(ccc(CN)c4O)C[C@H]3C[C@@H]12` [AR], the MIC in experiment [1] (setting [3]) and in experiment [2] (setting [4]) was under 4 µg/mL in each case.

Take `CCNCc1cc(N(C)C)c2c(c1O)C(=O)C1=C(O)[C@]3(O)C(=O)C(C(N)=O)=C(O)[C@@H](N(C)C)[C@@H]3C[C@@H]1C2`: the MIC in experiment [1] (setting [5]) is under 4 µg/mL; in experiment [2] (setting [6]) it was over 4 µg/mL.

For `CN(C)c1cc(CNCC2CCNCC2)c(O)c2c1C[C@H]1C[C@H]3[C@H](N(C)C)C(O)=C(C(N)=O)C(=O)[C@@]3(O)C(O)=C1C2=O`, the MIC in experiment [1] (setting [5]) and in experiment [2] (setting [6]) was over 4 µg/mL in each case.

Take `CN1C=CC(Nc2cc(C3=COCC3)c3c(c2O)C(=O)C2=C(O)[C@]4(O)C(=O)C(C(N)=O)=C(O)[C@@H](N(C)C)[C@@H]4C[C@@H]2C3)CC1` (some centres unmarked): the MIC in experiment [1] (setting [5]) is under 4 µg/mL; in experiment [2] (setting [6]), over 4 µg/mL.

As for `CC1c2ccc(-c3ccc4c(c3)OCO4)c(O)c2C(=O)C2=C(O)[C@]3(O)C(=O)C(C(N)=O)=C(O)[C@@H](N(C)C)[C@@H]3[C@@H](O)[C@@H]21` (some centres unmarked), the MIC in experiment [1] (setting [7]) and in experiment [2] (setting [8]) was under 4 µg/mL in each case.

For `C[C@H]1c2ccc(NC(=O)Oc3ccc(F)cc3)c(O)c2C(=O)C2=C(O)[C@]3(O)C(=O)C(C(N)=O)=C(O)[C@@H](N(C)C)[C@@H]3[C@@H](O)[C@@H]21` [V], the MIC in experiment [1] (read-out: Antibiotic Activity Gram +) and in experiment [2] (read-out: Antibiotic Activity Gram −) was over 4 µg/mL each time.

With `CCc1cc(CNCC(C)C)c(O)c2c1C[C@H]1C[C@H]3[C@H](N(C)C)C(O)=C(C(N)=O)C(=O)[C@@]3(O)C(O)=C1C2=O` [IZ], the MIC in experiment [1] (setting [3]) and in experiment [2] (setting [4]) was under 4 µg/mL in each case.

In the case of `CSCc1cc(-c2ccccn2)c2c(c1O)C(=O)C1=C(O)[C@]3(O)C(=O)C(C(N)=O)=C(O)[C@@H](N(C)C)[C@@H]3C[C@@H]1C2`, the values for the MIC in experiment [1] (setting [5]) and in experiment [2] (setting [6]) were under 4 µg/mL and over 4 µg/mL, respectively.

For the molecule `COC(=O)C1CCN(Cc2ccc(-c3ccc(O)c4c3C[C@H]3C[C@H]5[C@H](N(C)C)C(O)=C(C(N)=O)C(=O)[C@@]5(O)C(O)=C3C4=O)cc2)CC1`, the MIC in experiment [1] (setting [5]) and in experiment [2] (setting [6]) was under 4 µg/mL throughout.

With `COC(=O)C1CCN(CC(=O)Nc2ccc(-c3ccc(O)c4c3C[C@H]3C[C@H]5[C@H](N(C)C)C(O)=C(C(N)=O)C(=O)[C@@]5(O)C(O)=C3C4=O)cc2)CC1`, the results for the MIC in experiment [1] (setting [5]) and in experiment [2] (setting [6]) were under 4 µg/mL and over 4 µg/mL, respectively.

On to `CCCCOC(=O)Nc1cc(N(C)C)c2c(c1O)C(=O)C1=C(O)[C@]3(O)C(=O)C(C(N)=O)=C(O)[C@@H](N(C)C)[C@@H]3C[C@@H]1C2`, for which the MIC in experiment [1] (setting [5]) and in experiment [2] (setting [6]) was under 4 µg/mL in each case.

Take `CN1CCC(Nc2ccc(O)c3c2C[C@H]2C[C@H]4[C@H](N(C)C)C(O)=C(C(N)=O)C(=O)[C@@]4(O)C(O)=C2C3=O)CC1`: the MIC in experiment [1] (setting [5]) was under 4 µg/mL; in experiment [2] (setting [6]), over 4 µg/mL.

Turning to `CC(C)NCc1ccc(-c2ccc(O)c3c2C[C@H]2C[C@H]4C(N(C)C)C(O)=C(C(N)=O)C(=O)[C@@]4(O)C(O)=C2C3=O)cc1` (some centres unmarked) [GL], the MIC in experiment [1] (setting [3]) and in experiment [2] (setting [4]) was under 4 µg/mL in each case.

Turning to `CCNCC(=O)NCc1cc(N(C)C)c2c(c1O)C(=O)C1=C(O)[C@]3(O)C(=O)C(C(N)=O)=C(O)[C@@H](N(C)C)[C@@H]3C[C@@H]1C2`, the MIC in experiment [1] (setting [5]) and in experiment [2] (setting [6]) was over 4 µg/mL in each case.

With `CN(C)c1cc(CNOC(C)(C)C)c(O)c2c1C[C@H]1C[C@H]3[C@H](N(C)C)C(O)=C(C(N)=O)C(=O)[C@@]3(O)C(O)=C1C2=O`, the MIC in experiment [1] (setting [5]) and in experiment [2] (setting [6]) was under 4 µg/mL each time.
